This assay concerns the target Voltage-dependent L-type calcium channel subunit alpha-1D (Rattus norvegicus, UniProt P27732). Kind of assay: Inhibition of [3H]nitrendipine binding to L-type [Ca2+] channel in rat cortex homogenate, activity expressed as pIC50.

Molecules are shown by their SMILES.

Broadly, the IC50 is the concentration that inhibits the measured activity by half.

Voltage-dependent L-type calcium channel subunit alpha-1D, sequence (P27732 whole entry): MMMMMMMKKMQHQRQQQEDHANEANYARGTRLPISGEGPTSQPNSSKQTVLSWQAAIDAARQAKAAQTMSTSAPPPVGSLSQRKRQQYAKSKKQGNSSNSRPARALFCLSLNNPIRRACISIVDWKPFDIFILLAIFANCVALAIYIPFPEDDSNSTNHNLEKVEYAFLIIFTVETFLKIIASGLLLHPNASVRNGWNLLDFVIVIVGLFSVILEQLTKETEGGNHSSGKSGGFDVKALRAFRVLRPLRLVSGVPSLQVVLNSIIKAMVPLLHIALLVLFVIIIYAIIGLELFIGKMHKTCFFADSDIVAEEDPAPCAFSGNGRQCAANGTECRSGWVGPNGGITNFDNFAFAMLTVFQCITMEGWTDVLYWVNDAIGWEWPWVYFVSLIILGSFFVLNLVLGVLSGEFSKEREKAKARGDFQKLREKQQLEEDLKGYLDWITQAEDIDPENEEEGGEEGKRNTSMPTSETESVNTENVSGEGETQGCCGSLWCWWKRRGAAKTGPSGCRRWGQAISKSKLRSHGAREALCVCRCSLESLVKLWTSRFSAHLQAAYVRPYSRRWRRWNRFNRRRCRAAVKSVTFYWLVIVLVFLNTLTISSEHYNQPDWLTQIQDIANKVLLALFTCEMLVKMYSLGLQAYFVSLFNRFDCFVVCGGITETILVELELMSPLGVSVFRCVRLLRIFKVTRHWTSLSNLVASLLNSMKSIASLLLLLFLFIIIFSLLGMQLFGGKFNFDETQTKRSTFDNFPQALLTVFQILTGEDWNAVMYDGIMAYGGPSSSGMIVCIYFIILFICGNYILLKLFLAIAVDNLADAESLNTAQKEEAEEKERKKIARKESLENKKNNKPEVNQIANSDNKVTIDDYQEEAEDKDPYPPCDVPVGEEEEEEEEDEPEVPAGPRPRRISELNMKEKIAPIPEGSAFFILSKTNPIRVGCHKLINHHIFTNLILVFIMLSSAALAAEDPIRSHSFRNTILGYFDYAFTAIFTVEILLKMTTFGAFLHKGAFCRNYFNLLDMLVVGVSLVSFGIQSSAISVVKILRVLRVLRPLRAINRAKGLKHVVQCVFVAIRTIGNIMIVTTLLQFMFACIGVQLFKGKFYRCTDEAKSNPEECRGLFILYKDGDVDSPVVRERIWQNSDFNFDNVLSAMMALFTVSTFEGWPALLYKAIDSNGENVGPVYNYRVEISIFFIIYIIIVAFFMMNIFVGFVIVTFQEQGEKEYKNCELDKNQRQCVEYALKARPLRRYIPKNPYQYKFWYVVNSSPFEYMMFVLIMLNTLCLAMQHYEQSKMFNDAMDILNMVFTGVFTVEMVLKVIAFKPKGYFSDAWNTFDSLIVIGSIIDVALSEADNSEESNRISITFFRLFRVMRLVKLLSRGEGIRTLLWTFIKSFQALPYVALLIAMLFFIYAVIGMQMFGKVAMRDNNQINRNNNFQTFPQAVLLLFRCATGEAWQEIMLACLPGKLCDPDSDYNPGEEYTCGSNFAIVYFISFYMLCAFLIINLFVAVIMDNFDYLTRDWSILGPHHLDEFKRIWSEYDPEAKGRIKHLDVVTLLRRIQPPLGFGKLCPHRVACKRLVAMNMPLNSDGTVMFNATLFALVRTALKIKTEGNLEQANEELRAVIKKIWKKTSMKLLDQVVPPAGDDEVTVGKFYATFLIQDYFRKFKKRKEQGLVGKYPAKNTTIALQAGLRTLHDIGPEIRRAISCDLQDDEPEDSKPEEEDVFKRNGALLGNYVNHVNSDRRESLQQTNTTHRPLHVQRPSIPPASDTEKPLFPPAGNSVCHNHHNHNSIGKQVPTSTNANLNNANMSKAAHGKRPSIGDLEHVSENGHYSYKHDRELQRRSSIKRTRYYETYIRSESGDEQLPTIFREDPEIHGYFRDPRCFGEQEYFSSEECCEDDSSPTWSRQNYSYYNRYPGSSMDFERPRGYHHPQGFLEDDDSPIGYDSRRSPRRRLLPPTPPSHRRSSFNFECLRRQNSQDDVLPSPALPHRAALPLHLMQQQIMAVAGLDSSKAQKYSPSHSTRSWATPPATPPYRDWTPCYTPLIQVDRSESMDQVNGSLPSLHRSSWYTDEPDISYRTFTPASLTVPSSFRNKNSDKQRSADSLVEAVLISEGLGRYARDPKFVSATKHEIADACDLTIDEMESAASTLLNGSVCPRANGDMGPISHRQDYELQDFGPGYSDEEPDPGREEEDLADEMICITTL

With `COc1ccc(C2Sc3ccccc3-n3c(CN4CCOCC4)ccc32)cc1` (centres undefined), the half-maximal inhibitory concentration (IC50) was 5010 nM. With `COC1(OC)C=CC(C2(C3=CCC(OC)(OC)C=C3)Sc3ccc(C(F)(F)F)cc3-n3cccc32)=CC1` the figure was 5010 nM; with `O=C1CC[C@H]2[C@H](c3ccccc3)Sc3ccccc3N12`, 0.776 nM; with `COC1(OC)C=CC(C2(C3=CCC(OC)(OC)C=C3)Sc3ccccc3-n3cccc32)=CC1`, 5010 nM.

As to `CN(C)Cc1ccc2n1-c1ccccc1SC2c1ccccc1` (centres undefined), the IC50 was 316 nM. With `FC(F)(F)c1ccc2c(c1)-n1cccc1C(c1ccccc1)(c1ccccc1)S2` the figure was 2040 nM; with `COc1ccc(C2Sc3ccccc3-n3c(CN(C)CCc4ccc(OC)c(OC)c4)ccc32)c(OC)c1` (centres undefined), 1580 nM; with `CC(=O)OC1(c2ccccc2)Sc2ccc(C(F)(F)F)cc2-n2cccc21` (centres undefined), 64.6 nM.

In the case of `COc1ccc(CCNCc2ccc3n2-c2ccccc2SC3C2=CCC(OC)(OC)C=C2)cc1OC` (centres undefined), the half-inhibitory concentration (IC50) was 398 nM. With `CCC(C)NCc1ccc2n1-c1ccccc1SC2C1=CCC(OC)(OC)C=C1` (centres undefined) the figure was 12 nM; with `Clc1ccc2c(c1)-n1cccc1C(c1ccccc1)(c1ccccc1)S2`, 4370 nM; with `COc1ccc([C@@H]2Sc3ccccc3-n3c(CN(C)C)ccc3[C@@H]2OC(C)=O)cc1`, 135 nM. With `CC(=O)O[C@H]1c2ccc(CN(C)C)n2-c2cc(C(F)(F)F)ccc2S[C@H]1c1ccccc1` the figure was 302 nM; with `c1ccc(C2(c3ccccc3)Sc3ccccc3-n3cccc32)cc1`, 468 nM.

Turning to `COc1ccc([C@@H]2Sc3ccc(Cl)cc3-n3c(CN(C)C)ccc3[C@@H]2OC(C)=O)cc1`, the IC50 is 3.31 nM. Turning to `CN(C)Cc1ccc2n1-c1cccc(Cl)c1SC2(c1ccccc1)c1ccccc1`, the half-inhibitory concentration (IC50) was 81.3 nM. As to `COc1ccc(CCN(C)Cc2ccc3n2-c2ccccc2SC3c2ccccc2)cc1OC` (centres undefined), the IC50 was 200 nM. On to `COc1ccc(C2(c3ccc(OC)cc3)Sc3ccccc3-n3c(CN(C)C)ccc32)cc1`, for which the IC50 is 2190 nM.

On to `CC(=O)O[C@H]1c2ccc(CN(C)C)n2-c2ccccc2S[C@H]1c1ccccc1`, for which the IC50 was 5010 nM.

Regarding `COc1ccc(C2Sc3ccccc3-n3c(CN(C)C)ccc32)c(OC)c1` (centres undefined), the 50% inhibitory concentration (IC50) was 151 nM.

Take `CN(C)Cc1ccc2n1-c1cc(C(F)(F)F)ccc1SC2(c1ccccc1)c1ccccc1`: the 50% inhibitory concentration (IC50) was 107 nM. With `COc1ccc(C2(OC(C)=O)Sc3ccccc3-n3cccc32)cc1` (centres undefined) the figure was 30.2 nM; with `COc1ccc(C2Sc3ccccc3-n3c(CN(C)CCc4ccc(OC)c(OC)c4)ccc32)cc1` (centres undefined), 52.5 nM; with `Clc1cccc2c1SC(c1ccccc1)(c1ccccc1)c1cccn1-2`, 316 nM. Consider `COc1ccc([C@@H]2Sc3ccccc3N3C(=O)CC[C@@H]23)cc1`, for which the 50% inhibitory concentration (IC50) was 4.37 nM. In the case of `COc1ccc([C@@H]2Sc3ccc(C(F)(F)F)cc3-n3c(CN(C)C)ccc3[C@@H]2OC(C)=O)cc1`, the IC50 was 5010 nM. With `CC(=O)OC1(c2ccccc2)Sc2ccccc2-n2cccc21` (centres undefined), the 50% inhibitory concentration (IC50) is 4680 nM. The figure for `CCC(C)NCc1ccc2n1-c1ccccc1SC2c1ccc(OC)cc1OC` (centres undefined) is 15.1 nM; for `CC(=O)O[C@H]1c2ccc(CN(C)C)n2-c2cc(Cl)ccc2S[C@H]1c1ccccc1` it is 1230 nM.

The record behind these values is ChEMBL document CHEMBL1130013, “Diltiazem-like calcium entry blockers: a hypothesis of the receptor-binding site based on a comparative molecular field analysis model” (J Med Chem, 1997).
